Results on 5 compounds are retold here after patent US7816074B2, “α4 β2 δGABA-A receptors as a strategy for PMS and alcoholism” (priority 2003, dated 2010).

Assay [1] has as its target T1, α4β2δ GABAA receptors (UniProt O14764+P63138+Q9D6F4).
T1 construct: expressed in transfected cells
The assay can be described thus: Two-electrode voltage-clamp of recombinant GABAA receptors in oocytes. Type of assay: cell-based.

For assay [2], the target named is T1, α4β2δ GABAA receptors. To be noted: α4βδ receptors (ref. 6); cited from earlier work.
The test system of a further assay is female Long Evans rats. The assay can be described thus: Acoustic startle response (ASR). Type of assay: in vivo, rat. The note with it: THIP 3 mg/kg i.p. As for the experimental part:
Animals were tested in a stabilimeter device (SR-Lab Startle Response System, San Diego Instruments, Inc., San Diego, Calif.) that permits vertical movement of a Plexiglas platform contained within a lit, well-ventilated sound-attenuating chamber (26). The amplitude of movement is detected by a piezoelectric device with a voltage output proportional to platform displacement. The analog output of the accelerometer is then amplified and digitized before computer analysis. Five minutes after i.p. administration of 10% ethanol (0.05-1.6 g/kg) or saline vehicle (1.5 ml volume) or 25 minutes after 4,5,6,7-tetrahydroisoxazolo[5,4-c]pyridin-3-ol injection (3 mg/kg, i.p.), animals were placed in the chamber for a 5 minutes acclimation period. […] Four acoustic stimuli (116 dB, 40 ms duration) were then presented at random intervals once every 10-15 seconds via a white-noise generator through speakers positioned on either side of the cage. […] For each acoustic stimulus, the amplitude and integrated response (amplitude and duration) were determined and normalized to the weight of the animal. Values for the integrated response after administration of each dose of ethanol or 4,5,6,7-tetrahydroisoxazolo[5,4-c]pyridin-3-ol were averaged and expressed as a fraction of the saline control average for the indicated treatment (progesterone withdrawal versus control) group in order to minimize variability between groups. […] It is also routinely used to assess behavioral excitability after withdrawal from BDZs and ethanol (73).
Animals were tested in a stabilimeter device (SR-Lab Startle Response System, San Diego Instruments, Inc.) that permitted vertical movement of a Plexiglas cage contained within a lit, well-ventilated, sound-attenuating chamber. The amplitude of movement was detected by a piezoelectric device with a voltage output proportional to cage displacement. The analog output of the accelerometer was amplified and digitized before computer analysis (15). Five minutes following intraperitoneal administration of alcohol (0.2 or 0.4 g/kg) or saline vehicle (1.5 ml volume), animals were placed in the chamber for 5 a minute acclimation period. Five acoustic stimuli (116 dB, 40 msec duration) were then presented once every 10-15 seconds via a white-noise generator through speakers positioned on either side of the cage. For each acoustic stimulus, the integrated response (amplitude and duration) was averaged across a 100 msec post-stimulus time period and the response latency determined. Both values were normalized to the weight of the animal. Values for the integrated response for the first noise stimulus following administration of each dose of alcohol were averaged and expressed as a fraction of the saline control average for the indicated treatment (P Wd versus control) group. […] It is routinely used to assess behavioral excitability following withdrawal from benzodiazepiness (48) and alcohol (73), and is known to be modified by GABA modulators, such as diazepam (11), and by local infusion of excitatory compounds into dorsal hippocampus (85).

For assay [3], the system named is GABAA receptors of acutely isolated CA1 hippocampal pyramidal cells. The assay can be described thus: Whole cell patch clamp, ethanol or THIP effect on GABA-gated current. The note with it: after progesterone withdrawal. Type of assay: cell-based, rat. The procedure:
Pyramidal neurons were acutely dissociated from CA1 hippocampus and GABA-gated Cl^− currents analyzed using whole cell patch clamp procedures as previously described (67). Briefly, tissue was digested at 32° C. for 50-60 minutes under 100% O2 in PIPES-buffered saline containing (in mM): NaCl 120, KCl 5, CaCl2 1, MgCl2 1, D-glucose 25, PIPES 20 and trypsin (type XI, sigma) 0.8 mg/ml, pH 7.0. After 1 hour of enzyme-free incubation at room temperature, tissue was dissociated by trituration in 1 ml of 20 mM HEPES-buffered DMEM which was replaced by recording medium after transfer to the recording chamber. GABA-gated currents were recorded at room temperature (20-25° C.) at a holding potential of −50 mV in a bath containing (in mM): NaCl 120, CsCl 5, CaCl2 2, MgCl2 1, TEA Cl 15, 4-aminopyridine 5, HEPES 10 and glucose 25, pH 7.4, 320 mOsm/kg H2O. The pipette solution contained (in mM): N-methyl-D-glucamine chloride 120, Cs4BAPTA 5 and Mg-ATP 5. The ATP regeneration system Tris phosphocreatine (20 mM) and creatine kinase were added to minimize GABA rundown. All drugs were obtained from Sigma Chemical Co, (St. Louis, Mo.), except for BAPTA (Calbiochem, San, Diego, Calif.).
Peak currents were calculated for all drug concentrations as relative to the current gated by 10 μM GABA alone using the equation: ([peak current: GABA+ETOH]−[peak current: GABA alone])/[peak current: GABA alone]. Currents were recorded using an Axopatch 1D amplifier (Axon Instruments) filtered at 2 kHz (four-pole Bessel filter) and detected at 500 Hz (pClamp 5.1).
Following progesterone withdrawal or control conditions, pyramidal cells were acutely isolated from CA1 hippocampus as described (65,64). GABA-gated Cl^− currents were recorded using whole cell patch clamp techniques at a holding potential of −50 mV.

The next assay has as its system GABAR α4 subunit. The assay can be described thus: Western blot of α4 subunit in hippocampus after steroid and ethanol administration. The format is in vivo, rat. To be noted: 48 hours of exposure to 3α,5β-THP (10 mg/kg i.p.), saline. As for the experimental part:
(§1) Animals were administered steroids using one of two protocols: (i) For the 48 hour steroid administration protocol, animals were injected with 10 mg/kg 3α, 5β THP in oil, i.p., on a daily basis for three days and sacrificed 1-2 hour following the final injection. Controls were injected with oil vehicle. […] At this time, the capsule was removed and the animals were injected with 17 β estradiol (2 μgs/animal) in order to reset their cycle. Animals were sacrificed 24 hours later. […] In all cases, implantation and removal of capsules were performed under halothane anesthesia. […] Therefore, this study employed the 5β isomer of the steroid.
(§2) In some groups of animals, either ethanol (0.5 g/kg in saline) or saline vehicle was administered i.p. (3×, every 40 minutes) for the final 2 hours of the respective steroid administration or withdrawal paradigm. The use of multiple injections of low doses of ethanol would approximate ethanol consumption in the human more closely than would a single injection. For the 48 hour steroid administration paradigm, animals received their first ethanol injection immediately after the steroid injection, and subsequent injections at 40 minute intervals. In all cases, animals were sacrificed 40 minutes after the final ethanol injection (2 hours after the first ethanol injection and final steroid injection). All animal protocols were carried out with the approval of the Institutional Animal Care and Use Committee.
Hippocampi removed from steroid or vehicle-treated animals were homogenized, and membranes prepared as previously described (65). Following electrophoresis on 8% SDS polyacrylamide gels, membranes were transferred to a nitrocellulose membrane (Bio-Rad, Hercules, Calif.). α4 subunit levels were detected by evaluating the band density at 67 kDa after probing with a polyclonal antibody (64). Membranes were incubated for 1-2 hours at room temperature with a 1:5000 dilution of horseradish peroxidase-conjugated donkey anti-rabbit IgG (Amersham, Arlington Heights, Ill.), and visualized with enhanced chemiluminescence with varying concentrations of protein in the linear range. Immunoreactive band densities were quantified using a CCD camera (UMAX Scanner) and one-Dscan software, which uses multiple Gaussian fits to achieve accurate band density profiles.

Assay [4] concerns GABAR of acutely dissociated CA1 hippocampal pyramidal neurons. Briefly: Whole cell patch clamp, lorazepam modulation and decay of GABA-gated current after steroid/ethanol treatment. Type of assay: cell-based, rat. As for the experimental part: as §1, §2
Currents were recorded using an Axopatch 1D amplifier (Axon Instruments) filtered at 2 kHz (four-pole Bessel filter) and detected at 500 Hz (pClamp 5.1).

Another assay concerns the target T2, α1β2 receptors (Rattus norvegicus, UniProt P62813+P63138).
T2 construct: expressed in transfected cells; host or cells: oocytes injected with cRNA (Xenopus laevis is named only)
The assay can be described thus: Two-electrode voltage-clamp of recombinant GABAA receptors in oocytes. Type of assay: cell-based, expressed in Xenopus laevis oocytes. To be noted: 1 μM zinc; n=5. The text has this: (§3) Plasmids with inserts encoding GABAA receptor subunit sequence for rat α1 (62), rat β2 (83), rat α2 (62), rat α5 (62), mouse α4 (37), mouse β3 (82), rat β1 (83), rat γ2S (63), human δ (12), and human ε (11) were produced by subcloning each separately into an appropriate cloning vehicle such as PCDM8, pCDNA3.1 or pGHEMHE vectors (Invitrogen, Carlsbad Calif.) using a T7 promoter and standard subcloning techniques (59). Plasmids were linearized with an appropriate restriction enzyme at a site 3′ to the insert and cRNAs were synthesized using T3 or T7 polymerase (mMessage mMachine, Ambion, Tex.). The size of the cRNA was verified and RNA was quantified by ethidium bromide staining after electrophoresis on 1% agarose gels.
The preparation, injection, and maintenance of oocytes were carried out as described previously (78). […]
Voltage-clamp recording was carried out 1 to 3 days after injection of cRNAs. […] Oocytes were voltage-clamped at −70 mV and macroscopic currents were recorded with a two-electrode voltage-clamp using a Warner Instruments OC-725 amplifier as described previously (79). Currents were recorded on a chart recorder or by using Axograph on a Macintosh computer. […]

The target of assay [5] is T3, α1β2δ receptors (oocytes injected with α1+β2+δ) (Rattus norvegicus, UniProt P62813+P63138).
T3 construct: expressed in transfected cells; host or cells: oocytes injected with cRNA (Xenopus laevis is named only)
T3 sequence (P62813 28-455): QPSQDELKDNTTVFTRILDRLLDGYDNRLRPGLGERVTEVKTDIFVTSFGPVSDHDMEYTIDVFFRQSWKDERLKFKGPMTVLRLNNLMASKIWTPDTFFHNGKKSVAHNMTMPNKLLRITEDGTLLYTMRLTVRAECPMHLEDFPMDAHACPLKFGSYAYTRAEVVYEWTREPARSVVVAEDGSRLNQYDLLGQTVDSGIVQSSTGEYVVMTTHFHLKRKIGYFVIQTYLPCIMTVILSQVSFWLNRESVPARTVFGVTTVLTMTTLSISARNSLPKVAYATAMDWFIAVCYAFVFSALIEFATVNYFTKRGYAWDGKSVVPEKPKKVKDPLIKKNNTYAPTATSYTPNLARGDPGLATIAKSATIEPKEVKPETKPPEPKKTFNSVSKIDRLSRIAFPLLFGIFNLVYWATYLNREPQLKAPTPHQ
T3 sequence (P63138 26-474): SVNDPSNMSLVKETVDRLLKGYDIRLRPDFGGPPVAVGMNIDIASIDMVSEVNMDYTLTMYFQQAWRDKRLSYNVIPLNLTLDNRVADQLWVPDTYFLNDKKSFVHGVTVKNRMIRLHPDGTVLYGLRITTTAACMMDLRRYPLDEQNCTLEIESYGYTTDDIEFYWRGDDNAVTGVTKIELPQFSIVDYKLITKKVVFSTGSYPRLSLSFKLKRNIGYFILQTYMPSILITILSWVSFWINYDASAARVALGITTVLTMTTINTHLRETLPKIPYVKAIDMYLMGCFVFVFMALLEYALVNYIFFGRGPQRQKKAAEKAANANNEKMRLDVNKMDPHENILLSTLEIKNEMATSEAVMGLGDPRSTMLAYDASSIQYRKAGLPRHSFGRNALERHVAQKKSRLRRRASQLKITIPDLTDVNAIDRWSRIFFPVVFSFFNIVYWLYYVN
Type of assay: cell-based, human δ, expressed in Xenopus laevis oocytes. The note with it: 1 μM zinc; the other 15 oocytes injected with α1+β2+δ.
From the text: as §3
(§4) The preparation, injection, and maintenance of oocytes were carried out as described previously (78). Oocytes were injected with receptor subunit cRNAs (2 to 20 ng) in the following ratios: α1:β1:γ2S, α1:β2:γ2S and α1:β1:ε1, 1:1:1; α2:β1:γ2S, α5:β1:γ2S, α4:β1:γ2S, and α4:β2:γ2S, 10:1:1; α4:β1:δ, α4:β2:δ, α4:β3δ, 10:1:10; α1:β2:δ, 1:1:10 or 1:0.5:3; α1:β1:δ, 1:1:10 or 1:0.5:3; α2:β1:δ and α2:β2:δ, 1:0.5:3; α1:β1, α1:β2, α2:β1, α2:β2, β2:γ2S and α4δ, 1:1, α4:β1, α4:β2, α4:β3, 10:1, β2δ, 1:10.
(§5) Voltage-clamp recording was carried out 1 to 3 days after injection of cRNAs. Electrodes were filled with 3 M KCl and had resistances of 0.4-4 MΩ. Oocytes were positioned in a small Perspex chamber and continuously superfused with a saline solution (100 mM NaCl, 2 mM KCl, 1.8 mM CaCl2, 10 mM HEPES, pH 7.5). Agonists and modulators were both applied in the same saline solution. Oocytes were voltage-clamped at −70 mV and macroscopic currents were recorded with a two-electrode voltage-clamp using a Warner Instruments OC-725 amplifier as described previously (79). Currents were recorded on a chart recorder or by using Axograph on a Macintosh computer.
(§6) Other subunits (α1, α2, β1, β2) were tested for co-expression with the δ subunit. […]

For assay [6], the target named is T4, α1β2δ receptors (oocytes injected with α1+β2+δ) (UniProt O14764+P62813+P63138).
T4 construct: expressed in transfected cells; host or cells: oocytes injected with cRNA (Xenopus laevis is named only)
T4 sequence (P62813 28-455): as the sequence (P62813 28-455) above
T4 sequence (P63138 26-474): as the sequence (P63138 26-474) above
T4 sequence (O14764 25-452): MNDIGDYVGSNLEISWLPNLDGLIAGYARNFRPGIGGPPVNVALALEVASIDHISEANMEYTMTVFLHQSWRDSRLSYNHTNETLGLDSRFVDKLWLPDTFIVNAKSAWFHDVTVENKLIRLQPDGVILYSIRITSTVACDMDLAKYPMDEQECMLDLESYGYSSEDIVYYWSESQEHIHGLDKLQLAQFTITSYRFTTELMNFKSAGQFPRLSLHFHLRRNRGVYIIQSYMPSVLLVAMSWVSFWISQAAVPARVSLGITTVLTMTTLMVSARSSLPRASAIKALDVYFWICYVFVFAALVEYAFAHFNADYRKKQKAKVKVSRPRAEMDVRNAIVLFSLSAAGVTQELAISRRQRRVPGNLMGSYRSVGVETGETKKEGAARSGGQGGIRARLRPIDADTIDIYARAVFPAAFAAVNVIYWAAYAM
The format is cell-based, rat α1, rat β2, human δ, expressed in Xenopus laevis oocytes. To be noted: 1 μM zinc; 7 of 22 oocytes injected with α1+β2+δ.
From the text: as §3, §4, §5, §6

T1 sequence (Q9D6F4 36-552): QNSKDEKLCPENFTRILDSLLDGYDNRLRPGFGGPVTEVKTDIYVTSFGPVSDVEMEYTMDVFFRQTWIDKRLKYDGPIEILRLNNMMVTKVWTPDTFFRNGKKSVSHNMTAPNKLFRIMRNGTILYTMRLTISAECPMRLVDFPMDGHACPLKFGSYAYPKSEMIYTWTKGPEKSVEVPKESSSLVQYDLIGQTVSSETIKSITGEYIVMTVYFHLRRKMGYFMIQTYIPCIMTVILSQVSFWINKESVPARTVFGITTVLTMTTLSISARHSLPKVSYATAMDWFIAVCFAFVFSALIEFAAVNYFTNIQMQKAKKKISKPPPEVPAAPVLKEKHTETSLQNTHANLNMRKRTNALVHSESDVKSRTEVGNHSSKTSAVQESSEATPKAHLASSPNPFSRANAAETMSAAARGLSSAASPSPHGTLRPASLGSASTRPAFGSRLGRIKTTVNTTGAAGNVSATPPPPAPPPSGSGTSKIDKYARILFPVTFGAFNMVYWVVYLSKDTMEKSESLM
T1 sequence (P63138 25-474 limits assumed): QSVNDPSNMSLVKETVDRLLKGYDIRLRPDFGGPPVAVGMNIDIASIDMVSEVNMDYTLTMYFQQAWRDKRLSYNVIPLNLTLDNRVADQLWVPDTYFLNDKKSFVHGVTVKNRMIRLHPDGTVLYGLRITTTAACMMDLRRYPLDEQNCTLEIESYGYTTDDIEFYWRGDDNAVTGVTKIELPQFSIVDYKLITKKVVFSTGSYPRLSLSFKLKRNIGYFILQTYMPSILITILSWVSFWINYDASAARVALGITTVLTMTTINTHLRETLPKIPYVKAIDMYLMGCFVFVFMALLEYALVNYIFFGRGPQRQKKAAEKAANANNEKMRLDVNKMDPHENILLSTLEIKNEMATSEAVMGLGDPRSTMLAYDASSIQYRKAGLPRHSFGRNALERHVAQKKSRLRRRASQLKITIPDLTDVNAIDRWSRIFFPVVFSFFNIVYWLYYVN
T1 sequence (O14764 17-452 limits assumed): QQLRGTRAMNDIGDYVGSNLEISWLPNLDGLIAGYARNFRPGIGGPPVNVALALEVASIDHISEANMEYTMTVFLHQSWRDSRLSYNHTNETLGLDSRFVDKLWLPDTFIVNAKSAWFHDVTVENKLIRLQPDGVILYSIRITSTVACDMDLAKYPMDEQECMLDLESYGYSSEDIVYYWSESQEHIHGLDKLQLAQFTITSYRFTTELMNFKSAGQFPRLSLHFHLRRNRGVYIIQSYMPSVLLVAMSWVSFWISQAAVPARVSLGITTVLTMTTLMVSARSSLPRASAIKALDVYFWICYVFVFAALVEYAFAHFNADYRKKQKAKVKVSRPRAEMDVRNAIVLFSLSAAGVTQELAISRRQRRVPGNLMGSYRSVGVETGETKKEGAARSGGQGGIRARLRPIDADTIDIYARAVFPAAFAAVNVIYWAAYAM
T2 sequence (P62813 28-455): as the sequence (P62813 28-455) above
T2 sequence (P63138 25-474 limits assumed): as the sequence (P63138 25-474 limits assumed) above

Turning to `Oc1noc2c1CCNC2` [THIP, 4,5,6,7-tetrahydroisoxazolo[5,4-c]pyridin-3-ol], the “ratio of currents induced by THIP:GABA” value at α4β2δ GABAA receptors [1] (oocytes injected with α4+β2+δ subunits) was determined as 1.24. Moreover, the “maximum current compared to that gated by GABA at α4βδ” value at α4β2δ GABAA receptors [2] is “greater maximum current”. Also, the “attenuation of ASR” value in the assay on female Long Evans rats (P withdrawn animals) was determined as 70%. Also, the “increase of ASR” value in the assay with female Long Evans rats (control animals) is on record as “about 40%”. Moreover, in assay [3], the “efficacy of THIP relative to GABA (maximum current)” value is reported as “increased efficacy”.

As for `[La]` [lanthanum], the “inhibition of currents at α4β2δ receptors” value at α4β2δ GABAA receptors [1] (La3+ 300 μM) came out at 80%.

On to `CC(=O)[C@H]1CC[C@H]2[C@@H]3CC[C@@H]4C[C@H](O)CC[C@]4(C)[C@H]3CC[C@]12C` [3α, 5β-THP], for which, in the assay with GABAR α4 subunit, the “increase of α4 expression compared to control” value is “threefold”.

With `O=C1Nc2ccc(Cl)cc2C(c2ccccc2Cl)=NC1O` (stereo not shown) [LZM, lorazepam], the “maximal potentiation of GABA-gated current” value in [4] (10 μM LZM, 48 h 3α,5β-THP with 2 h ethanol) was 90%. Also, the “potentiation of GABA-gated current” value in assay [4] (10 μM LZM, 48 h 3α,5β-THP, saline-treated rats) is on record as 12-15%. The “LZM-induced potentiation of GABA-gated current” value in assay [4] (2 hours of ethanol after progesterone withdrawal) is given as “robust”.

Consider `[Zn]` [zinc], for which the results for the “zinc inhibition of GABA currents” value (on α1β2 receptors; in [5]; in assay [6]) were 72.4±6.9%, 66.4±6.4% and 49.1±6.4%, respectively.
